Source: patent US11414379B2, “SPAK kinase inhibitors as neuroprotective agents” (United States Government as represented by the Department …, priority 2018, dated 2022)

How the values were obtained:
HIPK1 = HIPK1 (Homo sapiens, UniProt Q86Z02); test: Kinase panel (Dundee profiling); type: biochemical; conditions: read-out: % residual kinase activity
Procedure: The kinase selectivity of ZT-1a was further assessed using standard radioisotopic enzymatic assays against a panel of 140 recombinant kinases (Dundee profiling, Table 2) (Bain et al. (2007) The Biochemical journal 408, 297-315). ZT-1a at a concentration of 10 μM inhibited only MAPKAP-K2 activity 85±7% compared to DMSO control, representing high kinase selectivity.
Referring to Table 2, ZT-1a was tested at 10 and 1 μM against a panel of 140 recombinant kinases in an enzymatic activity-based assay performed by the International Centre for Kinase Profiling in the MRC Protein Phosphorylation and Ubiquitylation Unit. Values represent % residual kinase activity (mean+/−SEM, n=3). Kinases labelled with an asterick* are inhibited ≥50% by ZT-1a.

NKCC1 pThr203 = test: Phosphorylation immunoblot in KCC2-transfected HEK293 cells; type: cell-based, human
Procedure: HEK293 (human embryonic kidney 293) cells were cultured on 10-cm-diameter dishes in DMEM supplemented with 10% (v/v) foetal bovine serum, 2 mM L-glutamine, 100 U/ml penicillin and 0.1 mg/ml streptomycin. HEK293 cells were transfected with a mixture of 20 μl of 1 mg/ml polyethylenimine (Polysciences) and 5-10 μg of plasmid DNA as described previously (Durocher et al., 2002). 36 hours post-transfection cells were stimulated with either control isotonic or hypotonic medium for a period of 30 minutes. Cells were lysed in 0.3 mL of ice-cold lysis buffer/dish, lysates were clarified by centrifugation at 4° C. for 15 minutes at 26,000 g and the supernatant aliquots were frozen in liquid nitrogen and stored at −20° C. Protein concentrations were determined using the Bradford method. Cells were treated with the indicated concentrations of the SPAK/OSR1 inhibitors. […] Hypotonic low chloride buffer was 67.5 mM sodium-gluconate, 2.5 mM potassium-gluconate, 0.25 mM CaCl2), 0.25 mM MgCl2, 0.5 mM Na2HPO4, 0.5 mM Na2SO4 and 7.5 mM HEPES (pH 7.5).
(§1) The membranes were incubated for 30 min with TBST (Tris-buffered saline, 0.05% Tween-20) containing 5% (w/v) skim milk. The blots were then washed six times with TBST and incubated for 1 hour at room temperature with secondary HRP-conjugated antibodies diluted 5000-fold in 5% (w/v) skim milk in TBST. After repeating the washing steps, signals were detected with enhanced chemiluminescence reagent. Immunoblots were developed using a film automatic processor (SRX-101; Konica Minolta Medical) and films were scanned at 600 dpi (PowerLook 1000; UMAX). Figures were generated using Photoshop/Illustrator (Adobe). The densities of bands were measured with ImageJ. For phospho-antibody immunoprecipitation, KCC isoforms were immunoprecipitated from indicated cell extracts. 2 mg of the indicated clarified cell extract were mixed with 15 μg of the indicated phospho-specific KCC antibody conjugated to 15 μl of protein-G-Sepharose, in the added presence of […] of the dephosphorylated form of the phosphopeptide antigen, and incubated 2 hours at 4° C. with gentle shaking. Immunoprecipitates were washed three times with 1 mL of lysis buffer containing 0.15 M NaCl and twice with 1 ml of buffer A. Bound proteins were eluted with 1×LDS sample buffer.
HEK293 cells were transfected with a DNA construct encoding wild type N-terminally FLAG-tagged KCC2. 36 hrs post-transfection, cells were exposed 30 min to either control isotonic or hypotonic low [C1^−] conditions, then treated in the same conditions for an additional 30 min with the indicated inhibitors at the concentrations noted. Cell lysates were subjected to SDS-PAGE and Western blotting with the indicated antibodies. See FIG. 3 for Western blot quantitation.
Referring to FIG. 2, concentration-response experiments testing effects of Closantel analogs on phosphorylation of KCC2 Thr906/Thr1007 are shown. HEK293 cells were transfected with DNA construct encoding wild type N-terminally FLAG-tagged KCC2. 36 h post-transfection, cells were exposed 30 min to either control isotonic conditions or hypotonic low Cl^− conditions, then treated in the same conditions with the specified inhibitors (1b, 1c, 1f, 1d, 1h, and 1g, respectively) at the indicated concentrations for an additional 30 min. Lysates were subjected to SDS-PAGE and Western blotting with the indicated antibodies.
Referring to FIG. 3, HEK293 cells were transfected with the DNA construct encoding wild type N-terminally FLAG-tagged KCC2. 36 h post-transfection, cells were exposed 30 min to either control isotonic or hypotonic low Cl^− conditions, then treated in the same conditions with the specified inhibitors at the indicated concen-trations for an additional 30 min. Lysates were subjected to SDS-PAGE and Western blotting with the indicated antibodies. Closantel, STOCK1S-14279 and STOCK1S-50699 were used as reference compounds.

pKCC3 = test: Phosphorylation in ischemic mouse brains, immunoblot; type: in vivo
Procedure: as §1
(§2) Brain homogenates were prepared as previously described (Bhuiyan et al. (2017) Journal of cerebral blood flow and metabolism: official journal of the International Society of Cerebral Blood Flow and Metabolism 37: 2780-2794). Mice were anesthetized with 5% isoflurane vaporized in N20 and 02 (3:2), then decapitated. […] The pellet was re-suspended in the homogenization buffer. Protein content in both membrane and cytosolic fractions was determined by the standard bicinchoninic acid method.
(§3) Referring to FIG. 14A, representative immunoblots (IB) of phospho-SPAK/OSR1 (pSPAK/pOSR1), phospho-KCC3 and phospho-NKCC1 (pNKCC1) in mouse brains studied 24 hrs post-reperfusion after ischemic stroke are shown. Membrane protein fractions were prepared from contralateral (CL) and ipsilateral (IL) cerebral hemispheres. Vehicle (Veh, DMSO) or ZT-1a (5 mg/kg) was administered as described in FIG. 11A, FIG. 11B, and FIG. 13. Na^+-K^+ ATPase α-subunit and GAPDH served, respectively, as loading controls for membrane and cytosol fractions.
(§4) Referring to FIG. 14B, densitometry analyses of immunoblots (similar to those in panel A) of pSPAK/pOSR1, pNKCC1, tSPAK/tOSR1, and tNKCC1 in mouse brains studied 24 hrs reperfusion after tMCAO are shown. Data are means±SEM, n=5 per group (male 3, female 2). *p<0.05.

pSPAK/pOSR1 and pNKCC1 = test: as above; type: in vivo
Procedure: as §1, §2, §3, §4

[1] = test system: KCCs sites-1/2 (KCC2 Thr906/1007 or KCC3 Thr991/1048) phosphorylation; test: Phosphorylation immunoblot in HEK293 cells; type: cell-based, human; conditions: only at this concentration
Procedure: HEK293 (human embryonic kidney 293) cells were cultured on 10-cm-diameter dishes in DMEM supplemented with 10% (v/v) foetal bovine serum, 2 mM L-glutamine, 100 U/ml penicillin and 0.1 mg/ml streptomycin. HEK293 cells were transfected with a mixture of 20 μl of 1 mg/ml polyethylenimine (Polysciences) and 5-10 μg of plasmid DNA as described previously (Durocher et al., 2002). 36 hours post-transfection cells were stimulated with either control isotonic or hypotonic medium for a period of 30 minutes. Cells were lysed in 0.3 mL of ice-cold lysis buffer/dish, lysates were clarified by centrifugation at 4° C. for 15 minutes at 26,000 g and the supernatant aliquots were frozen in liquid nitrogen and stored at −20° C. Protein concentrations were determined using the Bradford method. Cells were treated with the indicated concentrations of the SPAK/OSR1 inhibitors. […]
The membranes were incubated for 30 min with TBST (Tris-buffered saline, 0.05% Tween-20) containing 5% (w/v) skim milk. […] After repeating the washing steps, signals were detected with enhanced chemiluminescence reagent. […] The densities of bands were measured with ImageJ. […]
HEK293 cells were transfected with a DNA construct encoding wild type N-terminally FLAG-tagged KCC2. […] See FIG. 3 for Western blot quantitation. […]

[2] = compared to vehicle-control mice
[3] = ipsilateral cortex membrane fractions, 24 hrs reperfusion, 5 mg/kg

Chain of HIPK1 (Q86Z02 whole entry, species assumed): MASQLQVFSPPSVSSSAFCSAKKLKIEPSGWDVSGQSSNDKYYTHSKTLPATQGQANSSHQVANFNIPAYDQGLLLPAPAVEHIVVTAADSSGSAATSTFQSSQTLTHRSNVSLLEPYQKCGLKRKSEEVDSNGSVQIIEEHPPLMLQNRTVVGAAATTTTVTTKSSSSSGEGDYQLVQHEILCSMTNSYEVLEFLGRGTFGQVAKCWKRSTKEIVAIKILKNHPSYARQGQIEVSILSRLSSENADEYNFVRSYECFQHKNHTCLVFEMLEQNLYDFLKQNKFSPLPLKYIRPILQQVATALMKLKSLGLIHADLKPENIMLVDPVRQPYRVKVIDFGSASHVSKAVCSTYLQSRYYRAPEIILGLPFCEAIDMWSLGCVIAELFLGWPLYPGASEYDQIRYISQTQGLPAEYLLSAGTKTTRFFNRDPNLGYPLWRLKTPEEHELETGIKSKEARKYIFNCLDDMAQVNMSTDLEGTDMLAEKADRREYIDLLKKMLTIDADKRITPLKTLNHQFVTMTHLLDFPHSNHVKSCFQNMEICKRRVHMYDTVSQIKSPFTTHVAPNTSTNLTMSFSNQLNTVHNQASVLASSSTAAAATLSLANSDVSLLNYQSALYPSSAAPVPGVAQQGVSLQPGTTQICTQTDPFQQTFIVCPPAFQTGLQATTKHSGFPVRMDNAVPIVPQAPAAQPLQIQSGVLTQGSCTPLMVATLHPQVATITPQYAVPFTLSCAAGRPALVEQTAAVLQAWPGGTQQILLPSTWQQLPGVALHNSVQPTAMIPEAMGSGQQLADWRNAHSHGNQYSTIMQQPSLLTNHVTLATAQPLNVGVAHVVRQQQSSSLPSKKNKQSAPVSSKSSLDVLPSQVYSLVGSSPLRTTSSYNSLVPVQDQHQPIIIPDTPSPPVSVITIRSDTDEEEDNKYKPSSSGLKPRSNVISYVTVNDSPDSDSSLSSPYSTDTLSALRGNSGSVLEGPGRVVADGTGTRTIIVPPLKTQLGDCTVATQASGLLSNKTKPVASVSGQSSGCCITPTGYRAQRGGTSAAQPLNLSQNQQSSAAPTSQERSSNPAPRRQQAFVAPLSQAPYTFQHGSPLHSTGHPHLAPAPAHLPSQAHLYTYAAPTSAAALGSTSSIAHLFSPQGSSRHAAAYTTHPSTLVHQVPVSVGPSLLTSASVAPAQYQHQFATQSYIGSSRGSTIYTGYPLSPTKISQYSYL

SMILES | remaining activity at 1 µM (HIPK1; 1 μM) | remaining activity at 10 µM (HIPK1; 10 μM) | inhibition at 1 µM (NKCC1 pThr203; Homo sapiens, read-out: inhibition of NKCC1 p-Thr203/207/212, up to, at 1 μM, n=4) | NKCC1 pThr203 (μM) hypo (NKCC1 pThr203; hypotonic low Cl- conditions, concentration inhibiting phosphorylation) | NKCC1 pThr203 (μM) Iso (NKCC1 pThr203; isotonic conditions, concentration inhibiting phosphorylation) | reduction of ischemia-induced elevations of pKCC3 (pKCC3; [2]) | effect on ischemia-induced increases of pKCC3 (pKCC3; [3]) | reduction of ischemia-induced elevations of pSPAK and pNKCC1 (pSPAK/pOSR1 and pNKCC1; [2]) | effect on ischemia-induced increases of pSPAK/pOSR1 and pNKCC1 (pSPAK/pOSR1 and pNKCC1; [3]) | concentration at which phosphorylation of KCCs site-1 was significantly inhibited [1]
Cc1cc(C(C#N)c2ccc(Cl)cc2)c(Cl)cc1NC(=O)c1cc(Cl)ccc1O (stereo not shown) [ZT-1a, 5-chloro-N-(5-chloro-4-((4-chlorophenyl)(cyano)methyl)-2-methylphenyl)-2-hydroxy-benzamide] | 98 ± 13% | 90 ± 4% | ≤ 72% | 1, 1 μM | 1, 1 μM | 30% | prevented ischemia-induced increases | 55-65% | prevented ischemia-induced increases | 
Cc1cc(C(C#N)c2ccc(Cl)cc2)c(Cl)cc1NC(=O)c1cc(I)cc(I)c1O (stereo not shown) [Closantel] |  |  |  |  |  |  |  |  |  | 10 µM
